In data set [1] the target is T1, Cys145 of MGMT (Homo sapiens, UniProt P16455).
T1 construct: hexa-histidine; made in house; host or cells: E. coli
T1 sequence (P16455 1-207): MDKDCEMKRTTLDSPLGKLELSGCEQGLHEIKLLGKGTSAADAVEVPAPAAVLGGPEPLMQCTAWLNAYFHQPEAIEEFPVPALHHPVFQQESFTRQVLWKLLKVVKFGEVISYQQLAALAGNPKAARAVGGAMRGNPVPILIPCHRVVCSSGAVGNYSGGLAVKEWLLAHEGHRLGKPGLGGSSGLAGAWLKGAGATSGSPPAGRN
Nature of the data set: BG-PEG-biotin probe binding to MGMT.
Description: Drug treatments and exposure times are shown in labels. […] Cells were trypsinized at times shown. Levels of MGMT activity and protein were determined in cell extracts. […] BG-PEG-biotin (5 μM) was then added and incubations continued for 15 minutes. The samples were electrophoresed, blotted and probed with Streptavidin-HRP to detect the protein-bound biotin (upper panel). […] Streptavidin-HRP was used to probe the resulting blot (upper panel).
MGMT protein and activity levels were analyzed during the depletion and repletion (FIG. 3B). […] MGMT protein levels as determined by western analyses during the depletion/repletion cycle were consistent with and fully reflected the DNA repair activity profiles (FIG. 3B, left panel).

Data set [2] deals with UW228 cells. In words: MTT cell survival assay. It is filed as cell-based, human. How it is done:
(§1) These were performed using the yellow tetrazolium dye (3-(4, 5-dimethylthiazolyl-2)-2, 5-diphenyl tetrazolium bromide) (MTT) as described previously. […] The purple color developed due to formazan was measured at 570 nm using a […]luor Plus plate reader (Tecan Inc.). Cell proliferation was also assessed by colony formation assays on soft agar.
(§2) Cells were then cultured for 48 hours before performing the MTT assays. […] The effect of drugs on cell survival was computed at each concentration. The data represents the results of three independent experiments performed in triplicate.
A general note: Tetrazolium dyes change colour on reduction, which living cells bring about.

Data set [3] concerns the target T2, purified recombinant MGMT (rMGMT) (Homo sapiens, UniProt P16455).
T2 construct: hexa-histidine; made in house; host or cells: E. coli
In words: MGMT DNA repair activity ([3H]-methyl transfer), purified recombinant MGMT treated with DSF. It is filed as biochemical. How it is done:
(§3) The DNA repair activity of MGMT was measured by the transfer of [3H]-labeled methyl groups from the O^6-position of guanine in the DNA substrate to the MGMT protein as described previously. The DNA substrate enriched in O6-methylguanine was prepared by reacting [3H]-methylnitrosourea (GE Healthcare, 60 Ci/mmol). Briefly, the cell pellets were washed with cold PBS, disrupted by sonication in the assay buffer (30 mM Tris-HCl pH 7.5, 0.5 mM DTT, 0.5 mM EDTA, 5% glycerol, and 20 μM spermidine) and centrifuged. The extracts (50-150 μg protein) were supplemented with the [3H]-DNA (10,000 cpm) and incubated at 37° C. The reactions were terminated by the addition of TCA, the DNA substrate was hydrolyzed at 80° C., and following filtration on glass fiber discs; the radioactivity present in protein precipitates was quantitated.
(§4) Cells were trypsinized, washed and MGMT activity was determined in cell extracts (top panel). The same extracts were western blotted for MGMT protein. WB, western blot. […] Cells were exposed to CuDSF and analyzed for MGMT activity and protein as above. […] To delineate the appropriate time for alkylating drug treatments following MGMT inhibition, next, the time course of MGMT depletion by these three interventions was studied.

Data set [4] relates to UW228 cells. Nature of the data set: Soft agar colony formation assay. Particulars: 50 μM DSF then BCNU or TMZ. It counts as cell-based, human. How it is done:
as §1, §2

Data set [5] concerns U87 malignant glioma cells. In words: MTT cell survival assay, MGMT-deficient cells. It counts as cell-based, human. Particulars: DSF-pretreated U87 cells lacking MGMT expression. The method, then: as §1
Cells were then cultured for 48 hours before performing the MTT assays. […] The effect of drugs on cell survival was computed at each concentration. The data represents the results of three independent experiments performed in triplicate. Values are mean+S.D. The results presented in panels B, C and G (at 25-75 μM BCNU and 250-750 temozolomide) were significant at P<0.05. *, indicates statistically significant difference as compared to controls.

In data set [6] the target is T3, cellular MGMT (UW228 cell-free extracts) (Homo sapiens, UniProt P16455).
T3 construct: endogenous in cells; host or cells: UW228, T98G
Nature of the data set: MGMT DNA repair activity in UW228 cell-free extracts treated with DSF. It is filed as biochemical. The settings on record: 25 μM DSF, 20 minutes. How it is done: as §3, §4

The conditions of data set [7]: cited from earlier work.
Data set [8] addresses T4, MGMT (Homo sapiens, UniProt P16455).
T4 sequence (P16455 1-207): T1 sequence (P16455 1-207)
Nature of the data set: MGMT activity and protein (western blot) in drug-treated T98G and UW228 brain tumor cells. It counts as cell-based. Further details: endogenous in cells; host or cells: UW228, T98G. The method, then: as §3
After trypsinization, the cell pellets were washed with cold PBS, and subjected to sonication in 50 mM Tris-HCl (pH 8.0) containing 1% glycerol, 1 mM EDTA, 0.5 mM PMSF and 2 mM benzamidine and centrifuged. Equal protein amounts from different treatments were electrophoresed on 12% SDS-polyacrylamide gels. Proteins were electro-transferred to Immobilon-P membranes. The membranes were blocked with 5% non-fat dry milk in Trisbuffered saline (TBS; pH 8.0) containing 0.1% Tween 20 for 3 hours, and subsequently incubated with appropriate primary antibodies. Antigen-antibody complexes were visualized by enhanced chemiluminiscence (Pierce Company). Band intensities were quantified using a Bio-Rad Versa Doc Imaging system.
as §4
At times indicated, MGMT activity and protein levels were assessed.
MGMT performs a stoichiometric reaction to accomplish the DNA repair and is not recycled to its active form. Instead, the inactivated protein is degraded and fresh translation has to occur to restore the MGMT levels in cells. The rate and extent of this recovery is an important factor in the extent of damage introduced to the normal cell genomes such as the bone marrow stem cells. […] MGMT protein and activity levels were analyzed during the depletion and repletion (FIG. 3B).

Data set [9] concerns the target T4, MGMT. In words: MGMT activity and protein in MGMT-proficient human cancer cell lines (HT29, T47D, HCT116). It counts as cell-based. Further details: endogenous in cells; host or cells: HT29, T47D, HCT116.
In data set [10] the target is T5, MGMT (Mus musculus, UniProt P26187).
T5 construct: from tissue; host or cells: mouse brain and liver
T5 sequence (P26187 whole entry): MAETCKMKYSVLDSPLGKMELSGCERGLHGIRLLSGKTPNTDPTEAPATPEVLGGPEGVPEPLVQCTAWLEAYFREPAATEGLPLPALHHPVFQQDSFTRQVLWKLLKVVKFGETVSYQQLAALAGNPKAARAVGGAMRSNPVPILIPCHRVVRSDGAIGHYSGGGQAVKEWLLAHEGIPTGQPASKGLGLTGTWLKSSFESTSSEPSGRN
Nature of the data set: MGMT activity in mouse brain and liver after DSF administration. It is filed as in vivo, mice. Particulars: single dose 150 mg/kg i.p., 9-12 hours. An excerpt: Control mice received DMSO alone.
Error bars indicate SD. […] The overall findings of the present study are summarized.

Molecules are shown by their SMILES. Where two headings read alike, the source gives them in different places.

On to `CCN(CC)C(=S)SSC(=S)N(CC)CC` [DSF, 1,1′,1″,1′″-[disulfanediylbis(carbonothioylnitrilo)]tetraethane], for which the “binding of BG-PEG-biotin probe to purified rMGMT after drug” value in data set [1] (50 μM DSF, 20 minutes at 37° C., wild type rMGMT) is on record as “significant reduction in binding of the probe”. For the same compound, the “BG-PEG-biotin labeling of MGMT in cell extracts after drug” value in [1] (UW228 cell extracts, 20 minutes) is recorded as “eliminated the western blot signal”. Besides, in data set [2] (50 μM DSF preincubation 12 hours), the “effect on melphalan-induced cell killing” value was “did not increase the melphalan-induced cell killing”. Also, the “potentiation of BCNU cytotoxicity” value in data set [2] (50 μM DSF preincubation 12 hours, BCNU 4 days) is 3 fold. In [2] (50 μM DSF preincubation 12 hours, TMZ 4 days), the “increased cytotoxicity of TMZ+DSF compared to TMZ alone” value lay in the range of 4 to 5 fold. Further, the “cell killing by DSF alone” value in [2] (50 μM DSF, 24 hours, then cultured 48 hours) is reported as “less than 5%”. The inhibition at 25 µM in data set [3] was 40%. Moreover, in data set [4], the “enhanced cytotoxicity of BCNU or TMZ, colony formation” value was 3 fold. Further, the “effect on cell killing by TMZ or BCNU” value in [5] is listed as “did not increase the extent of cell killing by TMZ or BCNU”. The “repair activity in the extracts curtailed” value in data set [6] stood at 75%. In addition, in [7], the “partition coefficient Log P” value is 2.8. The “duration of inactivation of MGMT” value in data set [8] was > 30 h. The “duration of suppression of MGMT activity in cell cultures” value in data set [8] lay in the range of 24 to 36 h. The inhibition at 50 µM in data set [8] (50 μM in culture medium, at 12 hours, maintained till 24 hours, read-out: maximal inhibition of MGMT activity and protein) is 75%; in data set [8] (UW228 cells, 50 μM, 12 hours, read-out: loss/inhibition of MGMT activity at 12 hours post-drug treatment), 75%; in data set [8] (read-out: inhibition of MGMT activity), ~70%. In addition, the “reversibility of DSF modification of MGMT by DTT” value in [8] (UW228 cells, 10 mM DTT) is “largely irreversible”. Moreover, the “recovery of MGMT activity, % of control levels” value in [8] (UW228 cells, 48 hours post-drug in drug-free media after 50 μM for 12 hours) is reported as ~95 % of control levels. In data set [9] (200 μM, 12 hours), the “degradation of MGMT” value was “about 70%”. Further, the inhibition at 400 µM in [9] (HT29 and HCT116 cells, 400 μM, 20 hour) is 95%. In data set [10], the “decrease of MGMT repair activity in brain” value is 40%.

These data come from patent US20230045112A1, “DISULFIRAM AND OTHER REDOX-RELATED COMPOSITIONS FOR BRAIN TUMORS” (Texas Tech University System, priority 2014, published 2023).
